Measured values: patent US9718825B2, “N-(4-(azaindazol-6-yl)-phenyl)-sulfonamides and their use as pharmaceuticals” (priority 2013, dated 2017)

Legend:
[1] = system: SGK-1 dependent phosphorylation of GSK3beta in U2OS cells; experiment: SGK-1 dependent phosphorylation of GSK3beta in U2OS cells overexpressing recombinant SGK-1 and GSK3beta; assay type: cell-based, human; settings: U2OS cells, 6 h incubation, ratio of phosphorylated GSK3beta to total GSK3beta; read-out: IC50 values for inhibition of SGK-1 dependent phosphorylation of GSK3beta in U2OS cells
[2] = target: recombinant human SGK-1 enzyme (Homo sapiens, UniProt O00141); experiment: Enzymatic activity assay: SGK-1 substrate peptide phosphorylation (Caliper lab-chip mobility shift); assay type: biochemical; settings: peptide substrate 1 μM, ATP 10 μM, 60 min at 37° C., read-out: IC50 values for inhibition of SGK-1 enzymatic activity
recombinant human SGK-1 enzyme, sequence (O00141 whole entry, looked up): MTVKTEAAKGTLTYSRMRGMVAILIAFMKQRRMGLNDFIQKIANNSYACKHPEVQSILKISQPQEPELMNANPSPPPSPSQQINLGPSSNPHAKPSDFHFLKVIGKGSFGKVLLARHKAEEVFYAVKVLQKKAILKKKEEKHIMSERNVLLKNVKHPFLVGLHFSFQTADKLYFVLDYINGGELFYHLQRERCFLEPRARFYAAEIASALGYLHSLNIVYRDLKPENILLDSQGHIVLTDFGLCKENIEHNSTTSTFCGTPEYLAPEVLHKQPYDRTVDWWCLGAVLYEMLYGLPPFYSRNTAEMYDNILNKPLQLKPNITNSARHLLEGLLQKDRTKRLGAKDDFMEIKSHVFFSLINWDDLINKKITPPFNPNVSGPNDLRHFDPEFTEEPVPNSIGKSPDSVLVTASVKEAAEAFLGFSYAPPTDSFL

[3] = system: SGK-1 dependent activation of ENaC-currents in A6 cell monolayers; experiment: Functional electrophysiological assay (Ussing chamber): SGK-1 dependent activation of ENaC-currents in A6 cell monolayers; assay type: cell-based, Xenopus laevis; settings: hypoosmotic shock 45 min, amiloride-sensitive ΔI'sc, read-out: IC50 values for inhibition of SGK-1 dependent activation of ENaC-currents in A6 cell monolayers
Protocol: C) Functional Electrophysiological Assay for Determination of SGK-1 Dependent Activation of ENaC-Currents in A6 Cell Monolayers
Cells were grown in cell culture flasks (Nunc) at 28° C. in a humidified atmosphere with 4% CO2. The culture medium contained a 7:3 mixture of Leibovitz's L-15 (Sigma-Aldrich)/Coon's (Sigma-Aldrich) media supplemented with 10% fetal bovine serum (PAA), 20% sterile water, 25 mM NaHCO3 (Sigma-Aldrich), 100 U/ml penicillin (PAA) and 100 μg/ml streptomycin (PAA). The osmolality of the medium was 270 mOsml/kg H2O). Cells were detached with accutase (PAA) and seeded for electrophysiological measurements into transwell filter inserts (polyester 0.4 μm pore size, Corning) at a density of 0.4×10^6 cells/filter. Cells were cultivated for 7-10 days, and confluent A6 cell monolayers were identified by repetitive resistance measurements in cell culture medium using an EVOM^2 ohmmeter (World Precision Instruments). Monolayers with a resistance of >10 kOhm were considered confluent. Filters with confluent A6 cells were transferred into a continuously perfused Ussing-chamber, and electrophysiological parameters were measured under open circuit conditions using a transepithelial clamp amplifier (EP Design). Short circuit current (I′sc) was calculated by Ohm's law. […] The pH was adjusted to 8.2. All measurements were done at room temperature.
To evaluate the effects of SGK inhibitors on ENaC-mediated transepithelial currents, A6 monolayers were first equilibrated for 5 min with isoosmotic Ringer solution from both the luminal and basolateral side of the cell layer. Amiloride was applied to the luminal site to establish the basal ENaC-dependent current (I′scbasal). Cell layers were then perfused from the basolateral side for 10 min with compounds in isotonic buffer or control isotonic buffer. SGK signaling leading to increased ENaC activity and subsequent increase in I′sc was stimulated by application of hypoosmotic Ringer-solution for 45 min to both sides of the A6 cell layer. ENaC-dependent I′sc after the hypoosmotic shock (I′schypo) was determined by application of amiloride at the end of the experiment. Total changes of amiloride-sensitive Isc was calculated as ΔI′sc=I′schypo−I′scbasal. […] The inhibition of ΔI′sc by the test compounds was determined relative to the ΔI′sc measured with control monolayers which were not treated with the test compound.

Compound	IC50 [1] [nM]	IC50 [2] [nM]	IC50 [3] [nM]
CC(C)COc1nc(-c2ccc(NS(=O)(=O)c3cc(Cl)ccc3Cl)cc2)nc2[nH]nc(N)c12 [Example 310]	220	130	10000
Cc1ccc(F)c(S(=O)(=O)Nc2ccc(-c3nc(OCC(C)C)c4c(N)n[nH]c4n3)cc2)c1 [Example 317]	210	11	10000
COc1ccc(Cl)c(S(=O)(=O)Nc2ccc(-c3ncc4c(N)n[nH]c4n3)cc2)c1 [Example 461]	260	< 1.5	180
Nc1n[nH]c2cc(-c3ccc(NS(=O)(=O)c4cc(Cl)c(F)cc4F)cc3)ncc12 [Example 555]	3800	< 1.5	600
Nc1n[nH]c2cc(-c3ccc(NS(=O)(=O)c4cc(Cl)ccc4Cl)cc3)ncc12 [Example 556]	1700	1.7	2000
